Laboratory results as given in article PMC11329504, “Identification of novel small molecule-based strategies of COL7A1 upregulation and readthrough activity for the treatment of recessive dystrophic epidermolysis bullosa” (Scientific Reports, 2024).
Read-outs that look alike come from different tables or passages of the source.

Assays:
JAK1 = JAK1 (Homo sapiens, UniProt P23458); test: Enzymatic JAK1 kinase activity; type: biochemical; details: dose-response curves; read-out: IC50 ± SD, JAK1
Protocol: (§1) Enzymatic Syk kinase activity assays were performed as previously described. Enzymatic activity of JAK1, JAK2, JAK3, and Tyk kinases was evaluated as previously described.

Syk = Syk (Homo sapiens, UniProt P43405); test: Enzymatic Syk kinase activity; type: biochemical; details: dose-response curves; read-out: IC50 ± SD, Syk
Protocol: as §1

[1] = Cytotoxicity, ATP levels (ATPlite), RDEB_L1 cells; type: cell-based; details: human, RDEB L1 cells (RDEB patient-derived cell line)
Protocol: The viability of RDEB patient-derived cell lines or NHK was evaluated by measuring the ATP levels as an indirect readout of the potential cytotoxicity effect of compounds. Cells were plated and treated exactly with the same conditions as those followed in the AlphaLISA assay, described above. To measure ATP levels, cells were processed using the ATPlite™ 1step luminescence-based assay (PerkinElmer 6,016,731), following the manufacturer’s protocol. 25 μL of ATPlite™ reagent was added directly over cells and plates were covered with a sealing film and shaken for 25 min using a microtiter plate shaker. Luminescence was measured in a Luminoskan Ascent luminometer (Thermo Fisher Scientific). 10 μM of Staurosporine was used as a reference compound and control for the total cytotoxicity.

BZD = test: Selectivity panel (Eurofins): benzodiazepine receptor BZD; type: binding; details: for % inhibition, BZD: n = 1, duplicate
PDE4D2 = target: T1, PDE4D2 (Homo sapiens, UniProt Q08499); test: Selectivity panel (Eurofins): PDE4D2; type: biochemical; details: n = 1, duplicate
T1 construct: Eurofins Pharma Discovery Services
T1 sequence (Q08499 303-809 limits assumed): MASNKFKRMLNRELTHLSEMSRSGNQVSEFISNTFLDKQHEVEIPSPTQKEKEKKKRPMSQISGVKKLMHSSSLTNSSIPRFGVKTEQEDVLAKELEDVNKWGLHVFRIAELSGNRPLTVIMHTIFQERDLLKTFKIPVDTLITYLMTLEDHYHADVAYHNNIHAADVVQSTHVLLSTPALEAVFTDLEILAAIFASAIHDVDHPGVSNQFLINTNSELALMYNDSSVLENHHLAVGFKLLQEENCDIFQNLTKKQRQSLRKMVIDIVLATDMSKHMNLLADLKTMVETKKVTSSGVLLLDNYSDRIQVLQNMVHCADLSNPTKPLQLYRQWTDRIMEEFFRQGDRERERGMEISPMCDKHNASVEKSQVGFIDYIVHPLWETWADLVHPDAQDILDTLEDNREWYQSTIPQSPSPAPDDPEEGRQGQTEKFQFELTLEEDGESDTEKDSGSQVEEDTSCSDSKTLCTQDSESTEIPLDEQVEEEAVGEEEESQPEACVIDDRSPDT
Protocol: Selectivity was evaluated at Eurofins Pharma Discovery Services at 3 µM, 10 µM, and 30 µM in duplicate using a selection of 84 representative kinases and 44 GPCRs, transporters, nuclear receptors (NR), enzymes, and ion channels.

SAPK2α = target: T2, SAPK2α (Homo sapiens, UniProt Q16539); test: Selectivity panel (Eurofins): p38/SAPK2α kinase; type: biochemical
T2 construct: Eurofins Pharma Discovery Services
T2 sequence (Q16539 whole entry): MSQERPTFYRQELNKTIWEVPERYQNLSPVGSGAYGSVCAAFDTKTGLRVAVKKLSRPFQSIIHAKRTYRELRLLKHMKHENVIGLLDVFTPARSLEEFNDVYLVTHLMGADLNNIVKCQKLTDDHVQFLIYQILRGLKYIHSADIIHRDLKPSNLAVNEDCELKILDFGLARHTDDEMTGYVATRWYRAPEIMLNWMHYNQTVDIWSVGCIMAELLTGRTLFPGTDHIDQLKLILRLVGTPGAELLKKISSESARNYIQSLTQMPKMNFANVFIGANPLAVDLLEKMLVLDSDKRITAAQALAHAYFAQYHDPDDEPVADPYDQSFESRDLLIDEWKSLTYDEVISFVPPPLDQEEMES

A2A = target: T3, A2A (Homo sapiens, UniProt P29274); test: Selectivity panel (Eurofins): A2A adenosine receptor; type: binding
T3 construct: Eurofins Pharma Discovery Services
T3 sequence (P29274 whole entry): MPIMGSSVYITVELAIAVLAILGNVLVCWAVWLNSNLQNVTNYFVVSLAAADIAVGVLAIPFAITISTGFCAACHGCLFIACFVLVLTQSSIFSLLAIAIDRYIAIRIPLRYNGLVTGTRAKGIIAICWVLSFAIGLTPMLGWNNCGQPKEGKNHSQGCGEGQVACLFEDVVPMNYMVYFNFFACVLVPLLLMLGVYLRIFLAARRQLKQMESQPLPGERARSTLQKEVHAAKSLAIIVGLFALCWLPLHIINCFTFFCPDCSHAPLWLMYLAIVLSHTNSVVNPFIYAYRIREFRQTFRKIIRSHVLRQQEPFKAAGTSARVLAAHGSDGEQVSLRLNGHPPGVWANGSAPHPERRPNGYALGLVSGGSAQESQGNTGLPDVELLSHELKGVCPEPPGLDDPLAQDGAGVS

NHK cells = test: Cytotoxicity, ATP levels, normal human keratinocytes (NHK); type: cell-based; details: NHK cells, ATP levels, at 100 µM
Procedure, shortened: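 RDEB patient-derived cells, CHO cells or normal human keratinocytes were plated and treated as in the AlphaLISA assay. Viability was read as ATP by ATPlite 1step luminescence; 10 μM staurosporine served as the total-cytotoxicity control.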

[2] = tested on: total C7 in HEK293^R578X cells; test: AlphaLISA quantification of total C7 in recombinant HEK293^R578X cells; type: cell-based, human; details: for EC50: Homo sapiens, total C7 AlphaLISA, 48 h, relative EC50, mean ± SD, read-out: Increase in C7 levels EC50
Protocol: The AlphaLISA assay was developed in-house by using the biotin-conjugated rabbit polyclonal antibody anti-C7 (LSBio LS-298147) and conjugating the acceptor beads (PerkinElmer 6772001) to a monoclonal anti-Collagen type VII antibody produced in mouse, clone LH7.2 (Thermo MA5-13,432). Formulation of the mAb clone LH7.2 was exchanged to PBS and concentrated 5 × by using Amicon® Ultra-0.5 centrifugal filters up to 1 mg/ml. The conjugation procedure was carried out according to the protocol provided by PerkinElmer.
For compound treatment in RDEB patient-derived transformed keratinocytes, 5,000 cells were plated in 20 µL of supplemented KGM media containing 20 ng/mL TGFβ2 (SIGMA GF113) without GA-1000 in 384-well cell culture plates (Greiner 781098). The day after, 5 µL of test compounds prepared 5 × in supplemented KGM without GA-1000 were added over cells and incubated for 48 h at 37 °C and 5% CO2. For compound treatment in HEK293^R578X, 10,000 cells were plated in 20 μL of DMEM (High Glucose, 2 mM L-Glutamine, sodium pyruvate, and FBS 10%) in 384-well cell culture plates (Greiner 781,098,). The day after, 5 μL of test compounds prepared 5 × in DMEM complete medium were added over cells and incubated for 48 h at 37 °C and 5% CO2.
After the treatment process, 2.5 µL of RIPA buffer 10 x (Abcam ab156034) were added over the […] of cells for 20 min at room temperature to obtain a complete cell lysis. Then, 2 μL of sample (i.e., cell lysate with supernatant) were transferred to the AlphaLISA plate (PerkinElmer 6,059,340) containing […] of antibodies mixture ([…] of acceptor Beads-Ab and […] of biotin-rAb) prepared in AlphaLISA buffer 1 x (PerkinElmer AL00F). The reaction was incubated for 90 min at room temperature. Finally, 10 μL of […] of donor beads (PerkinElmer 6760002,) were added to the reaction under subdued light, mixed gently, and incubated for 3 h at room temperature. AlphaLISA signal was detected with an Envision microplate reader (Perkin Elmer) using the following setting: Filter: AlphaScreen, Excitation time: 180 ms, Integration time: 300 ms.
Statistical analyses were performed using GraphPad Prism v. 7.04 (La Jolla, California). Results are shown as mean ± SD of experimental replicates. Dose–response curves to assess compound treatment effect were plotted in a four-parameter logistic model. Relative EC50, representing the total drug concentration producing a 50% effect, was calculated in the four-parameter logistic equation. Comparisons of collagen protein and mRNA expression in different experimental conditions were made using ANOVA, followed by a post hoc test. statistical significance was considered with p values < 0.05.

[3] = at concentrations of 3 and 10 µM

Sequence of JAK1 (P23458 whole entry, species assumed): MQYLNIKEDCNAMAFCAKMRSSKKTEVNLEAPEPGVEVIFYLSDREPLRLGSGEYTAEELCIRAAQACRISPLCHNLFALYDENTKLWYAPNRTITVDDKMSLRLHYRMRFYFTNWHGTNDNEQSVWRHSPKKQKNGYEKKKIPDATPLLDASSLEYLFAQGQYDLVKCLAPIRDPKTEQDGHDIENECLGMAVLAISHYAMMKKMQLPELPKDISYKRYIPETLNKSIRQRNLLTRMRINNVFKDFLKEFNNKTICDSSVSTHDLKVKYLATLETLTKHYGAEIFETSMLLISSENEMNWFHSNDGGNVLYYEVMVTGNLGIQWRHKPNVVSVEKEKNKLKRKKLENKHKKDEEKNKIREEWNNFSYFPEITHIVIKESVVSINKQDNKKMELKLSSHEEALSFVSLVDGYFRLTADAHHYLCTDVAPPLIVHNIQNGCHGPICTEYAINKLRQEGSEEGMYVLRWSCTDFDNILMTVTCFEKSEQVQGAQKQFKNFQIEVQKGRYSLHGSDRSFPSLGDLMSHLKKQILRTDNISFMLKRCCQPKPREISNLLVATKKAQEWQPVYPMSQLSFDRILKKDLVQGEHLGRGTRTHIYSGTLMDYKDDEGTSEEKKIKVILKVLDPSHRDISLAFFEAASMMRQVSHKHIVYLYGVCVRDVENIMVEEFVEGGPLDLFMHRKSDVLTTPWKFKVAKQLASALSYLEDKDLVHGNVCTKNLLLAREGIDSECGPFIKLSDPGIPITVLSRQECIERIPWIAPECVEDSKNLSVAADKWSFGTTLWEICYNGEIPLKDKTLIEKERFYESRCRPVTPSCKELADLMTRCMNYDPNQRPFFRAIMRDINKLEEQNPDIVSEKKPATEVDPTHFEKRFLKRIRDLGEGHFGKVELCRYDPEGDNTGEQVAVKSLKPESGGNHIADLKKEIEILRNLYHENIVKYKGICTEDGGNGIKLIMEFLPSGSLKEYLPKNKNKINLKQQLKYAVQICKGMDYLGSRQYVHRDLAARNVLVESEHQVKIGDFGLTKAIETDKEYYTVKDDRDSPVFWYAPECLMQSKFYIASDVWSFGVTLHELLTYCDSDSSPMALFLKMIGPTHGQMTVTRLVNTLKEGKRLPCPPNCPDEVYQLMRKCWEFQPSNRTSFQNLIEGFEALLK

SMILES: NC(=O)Cn1ccc2ccc(-c3cnc(N)c(C(=O)NC4C5CC6CC4CC(O)(C6)C5)n3)cc21 (stereo not drawn) [Compound 1]
- IC50 (JAK1): 0.44 ± 0.16 µM
- IC50 (Syk): 1.72 ± 0.44 µM

SMILES: C#Cc1cc(-c2ccncc2)c(-c2cccc(F)c2)nc1N [Compound 7]
- IC50 [1]: > 100 µM
- % inhibition, BZD (BZD; at 3 μM): 48%
- % inhibition, BZD (BZD; at 10 μM): 73%
- % inhibition, BZD (BZD; at 30 μM): 88%
- antagonism/inhibition of benzodiazepine receptor BZD (BZD; [3]): ≥ 50%
- inhibition at 3 µM (PDE4D2; at 3 μM): 16%
- inhibition at 10 µM (PDE4D2; at 10 μM): 34%
- inhibition at 30 µM (PDE4D2; at 30 μM): 61%
- inhibition at 3 µM (SAPK2α; at 3 μM, n = 1, duplicate, read-out: % inhibition, SAPK2α): 90%
- inhibition at 10 µM (SAPK2α; at 10 μM, n = 1, duplicate, read-out: % inhibition, SAPK2α): 103%
- inhibition at 30 µM (SAPK2α; at 30 μM, n = 1, duplicate, read-out: % inhibition, SAPK2α): 107%
- antagonism/inhibition of p38/SAPK2α kinase (SAPK2α; [3]): ≥ 50%
- inhibition at 10 µM (A2A; Table 5, read-out: Selectivity % inhibition, A2A): 96%
- inhibition at 3 µM (A2A; at 3 μM, n = 1, duplicate, read-out: % inhibition, A2A): 101%
- inhibition at 10 µM (A2A; n = 1, duplicate, read-out: % inhibition, A2A): 100%
- inhibition at 30 µM (A2A; at 30 μM, n = 1, duplicate, read-out: % inhibition, A2A): 101%
- antagonism/inhibition of A2A adenosine receptor (A2A; [3]): ≥ 50%
- Cytotox. % inhibition of viability (NHK cells): 19% ± 11 at 100 (n=4)
- EC50 [2]: 60 ± 4.6 µM
- Increase in C7 levels Emax, % vs baseline ([2]; at 100 µM): 96 ± 35 at 100 % vs baseline

SMILES: CNC(C)C1CCC(N)C(OC2C(N)CC(N)C(OC3OCC(C)(O)C(NC)C3O)C2O)O1 (stereo not drawn) [Gentamicin, reference compound]
- EC50 [2]: 4500 ± 2900 µM
- Increase in C7 levels Emax, % vs baseline ([2]; at 4100 µM): 89 ± 17 at 4100 % vs baseline
